Patent publication US20100112617A1, “Evaluating RTK Target Drugs” (Apocell, Inc, priority 2007, published 2010)
Values belong to the molecule of their own block, whether it stands above or below them.

What was measured:
Format in all cases: cell-based
PDGFR-β [1] = biological target: T1, PDGFR-β (Homo sapiens, UniProt P09619); assay: pPDGFR-β/tPDGFR-β ratio in PDGF-stimulated HUVEC cells; set-up: endogenous in cells; host or cells: HUVEC; conditions: for HUVEC pPDGFR-β/tPDGFR-β fold ratio change: PDGF 50 ng/ml 10 min
Excerpt: (§1) Thus, we repeated the experiment using additional RTKs and RTKIs. We used a known RTKI challenge reagent SU11248, which blocks phosphorylation of several kinases, including VEGFR2 (KDR), stem cell tyrosine kinase receptor (KIT), platelet-derived growth factor receptor (PDGFR), and fms-related tyrosine kinase 3 (FLT3).

PDGFR-β [2] = biological target: T1, PDGFR-β; assay: pPDGFR-β/tPDGFR-β ratio in PDGF-stimulated GIST cells; set-up: endogenous in cells; host or cells: GIST (gastrointestinal stromal tumor) cells; conditions: for GIST pPDGFR-β/tPDGFR-β fold ratio change: PDGF 50 ng/ml 10 min
Excerpt: as §1

EGFR = biological target: T2, EGFR (Homo sapiens, UniProt P00533); assay: pEGFR and tEGFR levels in EGF-stimulated HT-29 colon cancer cells by laser scanning cytometry; conditions: HT-29 cells; for pEGFR fold change in level / pEGFR/tEGFR fold change in level / tEGFR fold change in level: 0% FCS, EGF 100 ng/ml for 5 min
T2 construct: host or cells: HT-29 colon cancer cells
Method: We sought to test RTK response to RTKI's and thus measured both phospho-RTK and total RTK using a known RTKI challenge reagent. AEE788 (NOVARTIS®) is an oral multiple-receptor tyrosine kinase inhibitor of EGFR, human epidermal growth factor receptor 2 (HER-2), and vascular endothelial growth factor receptor (VEGFR). Thus, we measured EGFR response to AEE788 using antibody quantitation of the two parameters. HT-29 colon cancer cells were treated with increasing doses of AEE788, (0, 4, 20, 100, and 1000 nM) for 4 hours in serum-free media followed by EGF stimulation at 100 ng/ml for 5 minutes. Cells were then fixed and stained with anti-phospho-EGFR (P-EGFR-Y1173) antibody followed by a secondary antibody conjugated with a fluorescent probe. The mean fluorescence index (MFI) of pEGFR was quantified by laser scanning cytometry (LSC) […] and the results are shown in Table 2.

T2 sequence (P00533 25-1210): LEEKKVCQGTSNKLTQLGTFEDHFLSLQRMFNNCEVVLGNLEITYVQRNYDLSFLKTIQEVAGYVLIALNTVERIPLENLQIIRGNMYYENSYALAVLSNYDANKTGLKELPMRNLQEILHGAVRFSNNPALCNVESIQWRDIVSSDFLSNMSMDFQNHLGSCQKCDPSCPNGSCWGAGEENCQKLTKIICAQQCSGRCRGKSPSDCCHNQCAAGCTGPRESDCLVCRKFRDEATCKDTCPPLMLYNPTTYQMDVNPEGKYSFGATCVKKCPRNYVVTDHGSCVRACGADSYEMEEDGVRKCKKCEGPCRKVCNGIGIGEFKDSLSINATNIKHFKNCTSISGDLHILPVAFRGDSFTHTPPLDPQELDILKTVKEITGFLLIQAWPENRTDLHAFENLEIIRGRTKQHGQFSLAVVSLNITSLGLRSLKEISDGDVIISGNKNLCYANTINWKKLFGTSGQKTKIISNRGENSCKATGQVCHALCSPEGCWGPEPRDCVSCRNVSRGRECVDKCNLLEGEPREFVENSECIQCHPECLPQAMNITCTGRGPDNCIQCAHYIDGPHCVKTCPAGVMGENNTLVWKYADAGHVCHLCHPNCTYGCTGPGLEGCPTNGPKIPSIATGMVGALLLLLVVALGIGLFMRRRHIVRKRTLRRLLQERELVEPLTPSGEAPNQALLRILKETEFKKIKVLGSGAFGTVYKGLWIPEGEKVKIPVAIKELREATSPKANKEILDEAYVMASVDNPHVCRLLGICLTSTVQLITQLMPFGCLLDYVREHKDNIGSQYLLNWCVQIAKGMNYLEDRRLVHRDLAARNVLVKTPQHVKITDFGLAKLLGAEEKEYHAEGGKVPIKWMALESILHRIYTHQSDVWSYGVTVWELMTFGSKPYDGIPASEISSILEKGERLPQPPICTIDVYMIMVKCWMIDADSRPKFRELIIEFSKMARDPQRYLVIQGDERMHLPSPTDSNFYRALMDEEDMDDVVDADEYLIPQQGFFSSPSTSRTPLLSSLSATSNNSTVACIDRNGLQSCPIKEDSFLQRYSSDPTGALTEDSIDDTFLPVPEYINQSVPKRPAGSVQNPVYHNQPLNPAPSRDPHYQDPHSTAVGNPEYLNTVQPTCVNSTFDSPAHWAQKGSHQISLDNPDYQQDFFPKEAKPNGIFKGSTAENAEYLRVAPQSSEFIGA
T1 sequence (P09619 33-1106): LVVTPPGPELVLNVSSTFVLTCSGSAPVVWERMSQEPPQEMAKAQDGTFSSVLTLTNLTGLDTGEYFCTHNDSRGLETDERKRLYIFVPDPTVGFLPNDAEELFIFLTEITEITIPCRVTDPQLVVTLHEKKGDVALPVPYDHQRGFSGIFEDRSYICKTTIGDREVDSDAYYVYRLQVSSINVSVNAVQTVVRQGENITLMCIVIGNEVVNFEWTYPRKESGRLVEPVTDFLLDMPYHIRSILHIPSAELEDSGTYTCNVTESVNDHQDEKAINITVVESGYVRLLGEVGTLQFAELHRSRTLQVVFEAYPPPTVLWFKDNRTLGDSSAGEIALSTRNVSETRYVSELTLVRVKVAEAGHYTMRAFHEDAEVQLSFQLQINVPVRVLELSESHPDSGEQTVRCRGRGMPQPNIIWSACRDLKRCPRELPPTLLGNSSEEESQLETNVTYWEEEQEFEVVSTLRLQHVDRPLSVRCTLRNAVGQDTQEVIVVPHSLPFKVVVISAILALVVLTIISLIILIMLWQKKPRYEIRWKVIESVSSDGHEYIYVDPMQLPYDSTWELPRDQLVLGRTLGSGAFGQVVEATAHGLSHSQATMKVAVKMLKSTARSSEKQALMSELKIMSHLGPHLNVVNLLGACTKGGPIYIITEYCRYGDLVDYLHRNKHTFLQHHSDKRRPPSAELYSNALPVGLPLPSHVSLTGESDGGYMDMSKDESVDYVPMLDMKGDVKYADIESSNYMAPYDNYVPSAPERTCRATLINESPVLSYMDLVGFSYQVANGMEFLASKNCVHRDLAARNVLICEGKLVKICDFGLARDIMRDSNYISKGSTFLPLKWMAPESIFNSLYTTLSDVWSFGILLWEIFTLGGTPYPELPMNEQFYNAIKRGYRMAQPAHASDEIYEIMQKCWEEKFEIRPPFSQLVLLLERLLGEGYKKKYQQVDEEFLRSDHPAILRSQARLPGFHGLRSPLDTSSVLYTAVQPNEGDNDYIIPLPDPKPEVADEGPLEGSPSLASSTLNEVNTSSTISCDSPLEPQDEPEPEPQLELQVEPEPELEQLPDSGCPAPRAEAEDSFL

pPDGFR-β/tPDGFR-β ratio, in words (PDGFR-β [1]): decreased in a dose-dependent manner | HUVEC pPDGFR-β/tPDGFR-β fold ratio change (PDGFR-β [1]; 0.01 μM): 2.42 ± 0.36 fold | HUVEC pPDGFR-β/tPDGFR-β fold ratio change (PDGFR-β [1]; 0.1 μM): 1.48 ± 0.15 fold | HUVEC pPDGFR-β/tPDGFR-β fold ratio change (PDGFR-β [1]; 1 μM): 1.40 ± 0.23 fold | pPDGFR-β/tPDGFR-β ratio, in words (PDGFR-β [2]): decreased in a dose-dependent manner | GIST pPDGFR-β/tPDGFR-β fold ratio change (PDGFR-β [2]; 0.01 μM): 0.97 ± 0.05 fold | GIST pPDGFR-β/tPDGFR-β fold ratio change (PDGFR-β [2]; 0.1 μM): 0.00 ± 0.59 fold | GIST pPDGFR-β/tPDGFR-β fold ratio change (PDGFR-β [2]; 1 μM): 0.00 ± 0.08 fold
Compound: CCN(CC)CCNC(=O)c1c(C)[nH]c(/C=C2\C(=O)Nc3ccc(F)cc32)c1C [SU11248]

pEGFR fold change in level (EGFR; 4 nM for 4 h): 1.36 fold | pEGFR/tEGFR fold change in level (EGFR; 4 nM for 4 h): 0.65 fold | tEGFR fold change in level (EGFR; 4 nM for 4 h): 2.11 fold | pEGFR fold change in level (EGFR; 20 nM for 4 h): 0.97 fold | pEGFR/tEGFR fold change in level (EGFR; 20 nM for 4 h): 0.21 fold | tEGFR fold change in level (EGFR; 20 nM for 4 h): 4.61 fold | pEGFR fold change in level (EGFR; 100 nM for 4 h): 0.70 fold | pEGFR/tEGFR fold change in level (EGFR; 100 nM for 4 h): 0.16 fold | tEGFR fold change in level (EGFR; 100 nM for 4 h): 4.37 fold | pEGFR fold change in level (EGFR; 1000 nM for 4 h): 0.52 fold | pEGFR/tEGFR fold change in level (EGFR; 1000 nM for 4 h): 0.15 fold | tEGFR fold change in level (EGFR; 1000 nM for 4 h): 3.53 fold | total EGFR levels, in words (EGFR; 4-1000 nM): up-regulated total EGFR levels
Compound: CCN1CCN(Cc2ccc(-c3cc4c(N[C@H](C)c5ccccc5)ncnc4[nH]3)cc2)CC1 [AEE788]
EGF-induced phosphorylation of EGFR (pEGFR), in words (EGFR; 4-1000 nM): inhibited EGF-induced phosphorylation of its receptor (pEGFR) in a dose-dependent manner
